Consider two compounds from patent US6916782B1, “Gene coding for heliomicine and use thereof” (priority 1998, dated 2005).

Bridge positions count the residues as written; N and C are the ends. Ends that are not written are not given here.

One data set deals with female mice. As to the kind of experiment: Study of acute toxicity, intravenous injection.
The next data set relates to Neurospora crassa. The following applies: range [a]-[b], start of growth to no growth, 48 h, 30° C.
For the next data set, the system named is Fusarium culmorum. The following applies: range [a]-[b], 48 h, 30° C.
The test system of the next data set is Aspergillus fumigatus. As to the kind of experiment: Inhibition of growth in liquid medium, filamentous fungi (MIC). The class given is cell-based. The following applies: range [a]-[b], 48 h, 30° C. The text has this: (§1) This methodology was used to test for the antifungal molecules during the various purification steps, for the determination of the activity spectrum of the peptide and for the determination of the minimum inhibitory concentration (MIC) at which the peptide was active. The MIC was expressed as the concentration range [a]-[b] where [a] was the minimum concentration where the start of growth is observed and [b] the concentration for which no growth was observed.
(§2) The antifungal activity was detected by a test for inhibition of growth in a liquid medium. The spores of the fungi to be tested were suspended in a culture medium of the “potato-glucose” type. Preferably, 12 g of Potato Dextrose Broth medium (Difco) were used per 1 l of demineralized water. Two antibiotics were added to the culture medium: tetracycline (final concentration of 10 μg/ml) and cefotaxime (100 μg/ml). 10 μl of each fraction to be analysed are deposited in microtitre plates in the presence of 90 μl of culture medium containing the spores (at a final concentration of […]). The incubation was carried out in a humid chamber at 30° C. for 48 hours. Fungal growth was observed under a light microscope after 24 h and quantified after 48 hours by measuring the absorbance at 600 nm with the aid of a spectrophotometric microtitre plate reader. […]

A further data set deals with Trichoderma viride. The description is as above. The class given is cell-based. The following applies: range [a]-[b], 48 h, 30° C.
Text: as §1, §2

The next data set deals with Nectria haematococca. The following applies: range [a]-[b], 48 h, 30° C.
The test system of the next data set is Candida albicans. As to the kind of experiment: Test for detection of activity against yeasts (MIC). The following applies: range [a]-[b]. The class given is cell-based.
Text: as §1
(§3) The various yeast strains were incubated in a “Sabouraud” type culture medium and incubated at 30° C. for 24 h with gentle stirring. The test sample (10 μl) was deposited in microtitre plate wells to which there were added 90 μl of a dilute yeast culture whose density was adjusted to OD 600=0.001. Growth was evaluated by measuring the absorbance at 600 nm with the aid of a spectrophotometric microtitre plate reader.
(§4) - yeasts tested: Candida albicans, C. glabrata, C. tropicalis, C. krusei, C. inconspicua, Cryptococcus neoformans, Cryp. albidus, Saccharomyces cerevisiae (gift from Dr. H. Koenig, Hôpital civil, Strasbourg).

In another data set the test system is Candida inconspicua. Described as above. The following applies: range [a]-[b]. The class given is cell-based.
Text: as §1, §3, §4

In another data set the test system is Cryptococcus albidus. Described as above. In kind it is cell-based. The following applies: range [a]-[b].
Text: as §1, §3, §4

In the next data set the test system is Candida tropicalis. The description is as above. In kind it is cell-based. The following applies: range [a]-[b].
Text: as §1, §3, §4

Another data set deals with Candida krusei. The description is as above. The class given is cell-based. The following applies: range [a]-[b].
Text: as §1, §3, §4

The test system of the next data set is Cryptococcus neoformans. The data set is described as above. The class given is cell-based. The following applies: range [a]-[b].
Text: as §1, §3, §4

Protocol for Fusarium culmorum: (§5) The antifungal activity was detected by a test for inhibition of growth in a liquid medium. The spores of the fungi to be tested were suspended in a culture medium of the “potato-glucose” type. Preferably, 12 g of Potato Dextrose Broth medium (Difco) were used per 1 l of demineralized water. Two antibiotics were added to the culture medium: tetracycline (final concentration of 10 μg/ml) and cefotaxime (100 μg/ml). 10 μl of each fraction to be analysed are deposited in microtitre plates in the presence of 90 μl of culture medium containing the spores (at a final concentration of 104 spores/ml). The incubation was carried out in a humid chamber at 30° C. for 48 hours. Fungal growth was observed under a light microscope after 24 h and quantified after 48 hours by measuring the absorbance at 600 nm with the aid of a spectrophotometric microtitre plate reader.
(§6) The different mutated heliomicines were analyzed for their antifungal activity under the conditions described for the reference heliomicine against the following strains: Neurospora crassa, Fusarium culmorum and Nectria haematococca.
Protocol for Nectria haematococca: as §5, §6
Protocol for Neurospora crassa: as §5, §6
Protocol for female mice: Groups of 4 female mice were treated by intravenous injection of solutions of heliomicine (SEQ ID NO:2) in saline solution at doses of 1 and 10 mg/kg.

For the compound `CC[C@H](C)[C@H](NC(=O)CN)C(=O)NCC(=O)N[C@@H](C)C(=O)N[C@H](C(=O)N[C@@H](CC(C)C)C(=O)N[C@@H](CCCCN)C(=O)N[C@H](C(=O)N[C@@H](CC(C)C)C(=O)N[C@H](C(=O)N[C@H](C(=O)NCC(=O)N[C@@H](CC(C)C)C(=O)N1CCC[C@H]1C(=O)N[C@@H](C)C(=O)N[C@@H](CC(C)C)C(=O)N[C@H](C(=O)N[C@@H](CO)C(=O)N[C@@H](Cc1c[nH]c2ccccc12)C(=O)N[C@H](C(=O)N[C@@H](CCCCN)C(=O)N[C@@H](CCCNC(=N)N)C(=O)N[C@@H](CCCCN)C(=O)N[C@@H](CCCNC(=N)N)C(=O)N[C@@H](CCC(N)=O)C(=O)N[C@@H](CCC(N)=O)C(N)=O)[C@@H](C)CC)[C@@H](C)CC)[C@@H](C)O)[C@@H](C)O)C(C)C)C(C)C` [mellitin], the Toxic effects entry in the data set on female mice (intravenous injection, at 5 days at 1 mg) is “significant effects”. Also, the Mortality in the data set with female mice (intravenous injection, at 5 days at 10 mg) worked out at 100%.

Consider “DKLIGSCVWGAVNYTSDCNGECKRRGYKGGHCGSFANVNCWCET (disulfide 7-32, 18-40, 22-42) [heliomicine]”, for which the MIC of heliomicine with Neurospora crassa is 0.1 to 0.2 µM; with Fusarium culmorum, 0.2 to 0.4 µM; with Aspergillus fumigatus, 6 to 12.5 µM; in the data set with Trichoderma viride, 1.5 to 3 µM; in the data set on Nectria haematococca, 0.4 to 0.8 µM; with Candida albicans it was 2.5 to 5 µM. The MIC of heliomicine with Candida inconspicua is 5 to 10 µM; in the data set with Cryptococcus albidus, 5 to 10 µM; with Candida tropicalis, 2.5 to 5 µM; in the data set with Candida krusei it was 10 to 20 µM; with Cryptococcus neoformans it was 2.5 to 5 µM. In addition, the Acute toxicity entry in the data set on female mice (intravenous injection in saline solution, doses of 1 and 10 mg/kg) was “No toxicity was demonstrated”.
